In patent publication US7238681B2, “2-Methylene-18,19-dinor-1α-hydroxy-homopregnacalciferol and its uses” (Wisconsin Alumni Research Foundation, priority 2004, dated 2007):
Entries after “also recorded” stand apart in the source; their conditions may differ.

Columns and labels:
[1] = system: Sprague-Dawley rats; assay: Bone calcium mobilization (serum calcium) in vitamin D-deficient rats; type: in vivo, rat; details: for bone calcium mobilization activity (serum calcium): vitamin D-deficient rats, low calcium diet (0.02%), four consecutive ip doses, FIG. 4
Experimental: (§1) Male, weanling Sprague-Dawley rats were placed on Diet 11 (0.47% Ca) diet+AEK for one week followed by Diet 11 (0.02% Ca)+AEK for 3 weeks. The rats were then switched to a diet containing 0.47% Ca for one week followed by two weeks on a diet containing 0.02% Ca. Dose administration began during the last week on 0.02% calcium diet. Four consecutive ip doses were given approximately 24 hours apart. Twenty-four hours after the last dose, blood was collected from the severed neck and the concentration of serum calcium determined as a measure of bone calcium mobilization. The first 10 cm of the intestine was also collected for intestinal calcium transport analysis using the everted gut sac method.

[2] = system: 24-hydroxylase (24Ohase) gene promoter in ROS 17/2.8 (bone) cells; assay: In vitro transcription assay (24-hydroxylase gene promoter, luciferase reporter); type: cell-based; details: FIG. 3; for EC50: ROS 17/2.8 cells, 16 hours after dosing, read-out: EC50, transcriptional activity in bone cells
Experimental: Transcription activity was measured in ROS 17/2.8 (bone) cells that were stably transfected with a 24-hydroxylase (24Ohase) gene promoter upstream of a luciferase reporter gene (Arbour et al., 1998). Cells were given a range of doses. Sixteen hours after dosing the cells were harvested and luciferase activities were measured using a luminometer. • RLU=relative luciferase units. Intestinal Calcium Transport and Bone Calcium Mobilization

[3] = system: Human promyelocytic leukemia (HL60) cells; assay: HL-60 differentiation (nitro blue tetrazolium reduction assay); type: cell-based; details: FIG. 2; for EC50: HL60 cells, four days
Experimental: The study drugs were dissolved in ethanol and the concentrations determined using UV spectrophotometry. Serial dilutions were prepared so that a range of drug concentrations could be tested without changing the final concentration of ethanol (≦0.2%) present in the cell cultures.
Human promyelocytic leukemia (HL60) cells were grown in RPMI-1640 medium containing 10% fetal bovine serum. The cells were incubated at 37° C. in the presence of 5% CO2.
HL60 cells were plated at 1.2×10^5 cells/ml. Eighteen hours after plating, cells in duplicate were treated with drug. Four days later, the cells were harvested and a nitro blue tetrazolium reduction assay was performed (Collins et al., 1979; J. Exp. Med. 149:969–974). The percentage of differentiated cells was determined by counting a total of 200 cells and recording the number that contained intracellular black-blue formazan deposits. Verification of differentiation to monocytic cells was determined by measuring phagocytic activity (data not shown).

[4] = system: Sprague-Dawley rats; assay: Intestinal calcium transport, everted gut sac method, in vitamin D-deficient rats; type: in vivo, rat
Experimental: as §1

[5] = target: T1, full-length recombinant rat vitamin D receptor (Rattus norvegicus, UniProt P13053); assay: Vitamin D receptor binding, competition with [3H]-1,25(OH)2D3; details: FIG. 1
T1 construct: Full-length recombinant rat receptor was expressed in E. coli BL21 (DE3) Codon Plus RIL cells; histidine tag (C); made in house; host or cells: E. coli BL21 (DE3) Codon Plus RIL
T1 sequence (P13053 1-423): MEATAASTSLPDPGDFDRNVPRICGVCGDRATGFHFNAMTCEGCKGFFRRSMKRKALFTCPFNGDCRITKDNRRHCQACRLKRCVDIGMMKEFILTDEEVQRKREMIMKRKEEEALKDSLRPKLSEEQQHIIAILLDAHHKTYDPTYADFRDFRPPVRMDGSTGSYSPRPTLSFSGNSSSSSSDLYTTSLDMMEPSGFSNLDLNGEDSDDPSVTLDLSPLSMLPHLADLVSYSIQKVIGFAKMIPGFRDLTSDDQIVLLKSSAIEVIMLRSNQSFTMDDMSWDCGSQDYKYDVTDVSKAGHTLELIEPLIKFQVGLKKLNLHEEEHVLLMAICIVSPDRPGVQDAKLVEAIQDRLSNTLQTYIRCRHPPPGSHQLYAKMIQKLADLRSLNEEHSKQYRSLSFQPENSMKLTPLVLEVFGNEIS
Experimental: Full-length recombinant rat receptor was expressed in E. coli BL21 (DE3) Codon Plus RIL cells and purified to homogeneity using two different column chromatography systems. The first system was a nickel affinity resin that utilizes the C-terminal histidine tag on this protein. The protein that was eluted from this resin was further purified using ion exchange chromatography (S-Sepharose Fast Flow). Aliquots of the purified protein were quick frozen in liquid nitrogen and stored at −80° C. until use. For use in binding assays, the protein was diluted in TEDK50 (50 mM Tris, 1.5 mM EDTA, pH7.4, 5 mM DTT, 150 mM KCl) with 0.1% Chaps detergent. The receptor protein and ligand concentration were optimized such that no more than 20% of the added radiolabeled ligand was bound to the receptor.
Radiolabeled and unlabeled ligands were added to 100 mcl of the diluted protein at a final ethanol concentration of ≦10%, mixed and incubated overnight on ice to reach binding equilibrium. The following day, 100 mcl of hydroxylapatite slurry (50%) was added to each tube and mixed at 10-minute intervals for 30 minutes. The hydroxylapaptite was collected by centrifugation and then washed three times with Tris-EDTA buffer (50 mM Tris, 1.5 mM EDTA, pH 7.4) containing 0.5% Titron X-100. […] Total binding was determined from the tubes containing only radiolabeled ligand.

| Molecule | bone calcium mobilization activity (serum calcium) [1] | EC50 [2] [nM] | EC50 [3] [nM] | intestinal calcium transport ([4]; 780 pmol/day) | intestinal calcium transport ([4]; 2340 pmol/day) | bone calcium mobilization ([1]; 780 pmol/day for 4 consecutive days) | bone calcium mobilization ([1]; 2340 pmol/day) | bone calcium mobilization ([1]; 7020 pmol/day) | Ki ([5]; full-length recombinant rat VDR) [nM] | binding to the receptor as compared to the standard 1,25-(OH)2D3 ([5]; relative to 1,25-(OH)2D3) | transcriptional activity relative to 1α,25-dihydroxyvitamin D3 in bone cells [2] | potency on HL-60 cell differentiation compared with 1,25(OH)2D3 [3] | EC50 ([3]; Homo sapiens, HL-60, 96 h) [nM] | intestinal calcium transport ([4]; 7020 pmol/day) | intestinal calcium transport activity ([4]; vitamin D-deficient rats, low calcium diet (0.02%), four consecutive ip doses, FIG. 5) |
| --- | --- | --- | --- | --- | --- | --- | --- | --- | --- | --- | --- | --- | --- | --- | --- |
| C=C1/C(=C\C=C2/CCC[C@]3(C)[C@@H]([C@H](C)CCCC(C)(C)O)CC[C@@H]23)C[C@@H](O)C[C@@H]1O [1,25(OH)2D3, 1α,25-dihydroxyvitamin D3, reference compound] | increased serum calcium levels at all dosages | 3.2 | 3.2 | significant increase |  |  |  |  |  |  |  |  |  |  |  |
| 2-methylene-19-nor-1α-hydroxy-homopregnacalciferol [Compound 2MP, reference compound] |  |  |  |  | significant increase |  |  |  |  |  |  |  |  |  |  |
| C=C1[C@H](O)CC(=C/C=C2\CCC[C@@H]3[C@@H](C(C)C)CC[C@@H]23)C[C@H]1O [18,19-dinor-2MP, 2-methylene-18,19-dinor-1α-hydroxy-homopregnacalciferol] | no measurable bone calcium mobilization activity; also recorded: little, if any, activity in mobilizing calcium from bone | 15 |  | does not promote intestinal calcium transport | does not promote intestinal calcium transport | did not result in mobilization of bone calcium | without any substantial effect | without any substantial effect | 0.22 | one-fifth as well | one-tenth | almost as potent as 1,25(OH)2D3 | 15 | does not promote intestinal calcium transport | no measurable activity; also recorded: essentially devoid of intestinal calcium transport activity |
